Assay results published in US20230146870A1, “METHOD TO QUANTIFY AFFINITY AND SELECTIVITY OF SMALL MOLECULES FOR PROTEINS IN LIVING CELLS” (Ohio State Innovation Foundation, priority 2021, published 2023).

Assays:
[1] = molecular target: native (untagged) murine PKCα (Mus musculus, UniProt P20444); assay: FPCBA saturation binding of probe 1, native PKCα (IRES-mVenus) in HEK293 cells
[2] = molecular target: T1, native (untagged) murine PKCγ (Mus musculus, UniProt P63318); assay: FPCBA saturation binding of probe 1, native PKCγ (IRES-mVenus) in HEK293 cells
[3] = molecular target: T2, native (untagged) murine PKCη (Mus musculus, UniProt P23298); assay: FPCBA saturation binding of probe 1, native PKCη (IRES-mVenus) in HEK293 cells
[4] = molecular target: T3, native (untagged) murine PKCθ (Mus musculus, UniProt Q02111); assay: FPCBA saturation binding of probe 1, native PKCθ (IRES-mVenus) in HEK293 cells
murine PKCγ-mVenus = murine PKCγ-mVenus (Mus musculus, UniProt P63318); assay: FPCBA saturation binding of probe 1, HEK293 cells expressing PKCγ-mVenus (Example 3)
murine PKCζ-mVenus = murine PKCζ-mVenus (Mus musculus, UniProt Q02956); assay: FPCBA saturation binding of probe 1, HEK293 cells expressing PKCζ-mVenus (Example 3); settings: BIM1 2 μM, 2 h at 37° C., 4% FBS
PKCα = PKCα (Homo sapiens, UniProt P17252); settings: radiolabeled PDBu at 4° C.; read-out: Biochemical Ki, PKCα; cited from earlier work
PKCγ = PKCγ (Homo sapiens, UniProt P05129); settings: radiolabeled PDBu at 4° C.; read-out: Biochemical Ki, PKCγ; cited from earlier work
PKCζ = PKCζ (Homo sapiens, UniProt Q05513); settings: radiolabeled PDBu at 4° C.; cited from earlier work
[5] = molecular target: T2, native (untagged) murine PKCη; assay: FPCBA competition with probe 1, native PKCη in HEK293 cells; type: binding; design: expressed in transfected cells; host or cells: HEK293 (ATCC CRL-1573), transient transfection with pIRES-mVenus carrying the PKC gene; settings: read-out: Cellular Ki for native PKCη (95% confidence interval); probe 1 400 nM, BIM1 2 μM, 2 h at 37° C.
[6] = molecular target: T3, native (untagged) murine PKCθ; assay: FPCBA competition with probe 1, native PKCθ in HEK293 cells; type: binding; design: expressed in transfected cells; host or cells: HEK293 (ATCC CRL-1573), transient transfection with pIRES-mVenus carrying the PKC gene; settings: read-out: Cellular Ki for native PKCθ (95% confidence interval); probe 1 400 nM, BIM1 2 μM, 2 h at 37° C.
[7] = molecular target: T1, native (untagged) murine PKCγ; assay: FPCBA competition with probe 1, native PKCγ in HEK293 cells; type: binding; design: For coexpression of full-length unmodified PKC proteins with mVenus as an independent marker; expressed in transfected cells; host or cells: HEK293 (transient, pIRES-mVenus); settings: read-out: Cellular Ki for native PKCγ (95% confidence interval); probe 1 400 nM, BIM1 2 μM, 2 h at 37° C.
[8] = molecular target: T4, native (untagged) murine PKCε (Mus musculus, UniProt P16054); assay: FPCBA competition with probe 1, native PKCε in HEK293 cells; type: binding; design: For coexpression of full-length unmodified PKC proteins with mVenus as an independent marker; expressed in transfected cells; host or cells: HEK293 (transient, pIRES-mVenus); settings: read-out: Cellular Ki for native PKCε (95% confidence interval); probe 1 400 nM, BIM1 2 μM, 2 h at 37° C.
T4 sequence (P16054 1-737): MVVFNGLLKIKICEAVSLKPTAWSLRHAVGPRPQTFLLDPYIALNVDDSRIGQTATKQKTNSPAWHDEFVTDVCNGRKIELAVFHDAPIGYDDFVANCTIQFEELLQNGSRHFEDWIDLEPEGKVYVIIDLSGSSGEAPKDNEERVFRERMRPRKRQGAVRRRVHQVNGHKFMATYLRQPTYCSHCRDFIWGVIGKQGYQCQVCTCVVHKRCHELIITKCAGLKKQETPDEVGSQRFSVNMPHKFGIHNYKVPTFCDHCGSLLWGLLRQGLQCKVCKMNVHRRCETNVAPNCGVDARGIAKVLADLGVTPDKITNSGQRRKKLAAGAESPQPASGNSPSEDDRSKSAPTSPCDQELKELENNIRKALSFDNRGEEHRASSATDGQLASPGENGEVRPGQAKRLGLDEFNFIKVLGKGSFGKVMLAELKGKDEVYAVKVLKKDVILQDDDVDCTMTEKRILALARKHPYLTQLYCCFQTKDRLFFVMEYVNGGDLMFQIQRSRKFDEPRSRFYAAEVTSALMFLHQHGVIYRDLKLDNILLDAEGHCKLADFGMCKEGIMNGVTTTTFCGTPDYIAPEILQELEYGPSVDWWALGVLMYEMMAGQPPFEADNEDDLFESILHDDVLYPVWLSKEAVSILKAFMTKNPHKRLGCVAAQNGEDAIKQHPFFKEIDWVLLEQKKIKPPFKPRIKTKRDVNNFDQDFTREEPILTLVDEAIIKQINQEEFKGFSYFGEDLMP

T3 sequence (Q02111 whole entry): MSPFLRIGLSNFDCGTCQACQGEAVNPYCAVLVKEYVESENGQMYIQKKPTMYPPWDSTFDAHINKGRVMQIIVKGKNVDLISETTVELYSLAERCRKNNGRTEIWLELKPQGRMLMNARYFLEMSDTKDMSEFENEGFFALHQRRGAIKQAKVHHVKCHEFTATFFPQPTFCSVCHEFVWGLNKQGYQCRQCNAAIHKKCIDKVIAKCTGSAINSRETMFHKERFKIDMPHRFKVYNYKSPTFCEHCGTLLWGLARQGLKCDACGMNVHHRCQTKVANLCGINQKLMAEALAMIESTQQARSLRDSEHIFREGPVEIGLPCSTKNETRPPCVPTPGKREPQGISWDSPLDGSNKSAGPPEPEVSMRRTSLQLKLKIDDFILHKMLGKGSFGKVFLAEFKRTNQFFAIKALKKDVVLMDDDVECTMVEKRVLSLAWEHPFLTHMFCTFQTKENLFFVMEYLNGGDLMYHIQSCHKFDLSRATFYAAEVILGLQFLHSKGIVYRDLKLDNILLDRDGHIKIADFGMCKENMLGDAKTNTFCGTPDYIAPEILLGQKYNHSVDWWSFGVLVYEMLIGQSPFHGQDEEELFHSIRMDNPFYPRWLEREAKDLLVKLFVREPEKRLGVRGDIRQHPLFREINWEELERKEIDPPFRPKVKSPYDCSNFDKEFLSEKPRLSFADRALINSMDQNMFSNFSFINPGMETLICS
T2 sequence (P23298 whole entry): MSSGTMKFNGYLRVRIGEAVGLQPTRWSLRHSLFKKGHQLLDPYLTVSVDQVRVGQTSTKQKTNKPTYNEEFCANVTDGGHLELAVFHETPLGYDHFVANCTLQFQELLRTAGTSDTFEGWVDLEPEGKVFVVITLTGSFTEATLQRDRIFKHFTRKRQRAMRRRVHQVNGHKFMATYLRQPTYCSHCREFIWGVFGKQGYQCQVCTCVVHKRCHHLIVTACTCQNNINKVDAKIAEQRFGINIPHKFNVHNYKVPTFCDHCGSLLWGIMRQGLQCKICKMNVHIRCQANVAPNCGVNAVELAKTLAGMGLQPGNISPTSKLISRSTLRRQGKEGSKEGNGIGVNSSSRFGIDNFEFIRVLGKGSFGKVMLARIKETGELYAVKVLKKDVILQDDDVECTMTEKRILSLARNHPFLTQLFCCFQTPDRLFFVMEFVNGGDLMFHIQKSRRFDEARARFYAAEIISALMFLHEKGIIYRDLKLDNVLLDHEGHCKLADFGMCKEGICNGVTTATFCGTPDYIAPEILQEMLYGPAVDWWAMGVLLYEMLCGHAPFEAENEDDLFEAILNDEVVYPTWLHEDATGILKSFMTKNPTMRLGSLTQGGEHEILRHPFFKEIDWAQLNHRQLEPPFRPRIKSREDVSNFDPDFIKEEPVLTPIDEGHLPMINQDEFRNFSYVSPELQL
Chain of PKCζ (Q05513 whole entry): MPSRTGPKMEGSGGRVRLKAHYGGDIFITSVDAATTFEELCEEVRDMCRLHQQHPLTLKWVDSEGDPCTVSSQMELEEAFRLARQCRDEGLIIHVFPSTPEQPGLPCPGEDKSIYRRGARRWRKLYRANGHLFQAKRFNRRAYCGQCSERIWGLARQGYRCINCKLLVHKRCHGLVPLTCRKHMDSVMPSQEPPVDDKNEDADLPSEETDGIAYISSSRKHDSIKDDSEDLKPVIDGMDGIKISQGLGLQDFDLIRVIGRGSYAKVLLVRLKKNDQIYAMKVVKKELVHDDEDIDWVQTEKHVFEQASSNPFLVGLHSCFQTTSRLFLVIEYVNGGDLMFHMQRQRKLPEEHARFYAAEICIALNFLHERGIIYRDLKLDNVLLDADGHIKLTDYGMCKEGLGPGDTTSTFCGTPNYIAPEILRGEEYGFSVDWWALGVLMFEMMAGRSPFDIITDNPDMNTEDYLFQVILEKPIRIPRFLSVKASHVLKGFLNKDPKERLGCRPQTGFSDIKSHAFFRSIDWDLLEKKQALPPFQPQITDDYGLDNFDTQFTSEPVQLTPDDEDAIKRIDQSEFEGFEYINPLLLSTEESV

Row | Structure (SMILES) | Kd [1] | Kd [2] | Kd [3] | Kd [4] | Kd (murine PKCγ-mVenus) | Cellular Kd for probe, PKCζ-mVenus (murine PKCζ-mVenus) | Ki (PKCα) | Ki (PKCγ) | Biochemical Ki, PKCζ (PKCζ) | Ki [5] | Ki [6] | Ki [7] | Ki [8]
1 | CCCCCCN(CCCCCCCCCCCCNC(=O)c1cc2cc(F)c(O)c(F)c2oc1=O)C(=O)O[C@@]12[C@H](O)[C@@H](C)[C@@]3(O)[C@@H](C=C(CO)C[C@]4(O)C(=O)C(C)=C[C@@H]34)[C@@H]1C2(C)C [probe 1, (1aR,1bS,4aR,7aS,7bS,8R,9R,9aS)-4a,7b,9-trihydroxy-3-(hydroxymethyl)-1,1,6,8-tetramethyl-5-oxo-1,1a,1b,4,4a,5,7a,7b,8,9-decahydro-9aH-cyclopropa[3,4]benzo[1,2-e]azulen-9a-yl (12-(6,8-difluoro-7-hydroxy-2-oxo-2H-chromene-3-carboxamido)dodecyl)(hexyl)carbamate] | 63 nM | 211 ± 92 nM | 177 nM | 1050 ± 125 nM | 391 ± 142 nM | No binding | – | – | – | – | – | – | –
2 | CCC/C=C/C=C/C(=O)O[C@H]1/C(=C/C(=O)OC)C[C@H]2C[C@H]([C@@H](C)O)OC(=O)C[C@H](O)C[C@@H]3C[C@H](OC(C)=O)C(C)(C)[C@](O)(C[C@@H]4C/C(=C/C(=O)OC)C[C@H](/C=C/C(C)(C)[C@]1(O)O2)O4)O3 [bryostatin 1] | – | – | – | – | – | – | 0.81 nM | 2.2 nM | No binding | 9 nM | 8 nM | 8 nM | 16 nM
